Among the data in ChEMBL document CHEMBL1151543, “Application of the trimethyl lock1 to Ganciclovir, a pro-prodrug with increased oral bioavailability” (Bioorg Med Chem Lett, 1996) are bioavailability values, retold here.

The data set in a line: Oral bioavailability in rat. In kind it is ADME, organism-based. As to conditions: in vivo.
For `Cc1cc(C)c(C(C)(C)CC(=O)OCC(CO)OCn2cnc3c(O)nc(N)nc32)c(OCc2ccccc2)c1` (stereo not drawn), the bioavailability was determined as 0%. In the case of `CC(=O)Oc1cc(C)cc(C)c1C(C)(C)CC(=O)OCC(CO)OCn1cnc2c(O)nc(N)nc21` (stereo not drawn), the bioavailability is 15.6%. For `Nc1nc(O)c2ncn(COC(CO)CO)c2n1` [GANCICLOVIR], the bioavailability was 3.6%.

As usually defined, the bioavailability is the share of a dose that reaches the circulation, judged against a reference dose that is usually intravenous.
